# Values quoted from earlier work as cited in patent US20060211664A1, “Method for treating erectile dysfunction and increasing libido in men” (priority 2002, published 2006).
# Counter-ions that a name gives are not always drawn.
# What was measured:
# [1] = molecular target: sex hormone binding globulin (SHBG) and albumin (Homo sapiens, UniProt P02768); conditions: in men
# [2] = molecular target: T1, sex hormone binding globulin (SHBG) and albumin (Homo sapiens, UniProt P04278); conditions: in men, high-affinity
# T1 sequence (P04278 30-402): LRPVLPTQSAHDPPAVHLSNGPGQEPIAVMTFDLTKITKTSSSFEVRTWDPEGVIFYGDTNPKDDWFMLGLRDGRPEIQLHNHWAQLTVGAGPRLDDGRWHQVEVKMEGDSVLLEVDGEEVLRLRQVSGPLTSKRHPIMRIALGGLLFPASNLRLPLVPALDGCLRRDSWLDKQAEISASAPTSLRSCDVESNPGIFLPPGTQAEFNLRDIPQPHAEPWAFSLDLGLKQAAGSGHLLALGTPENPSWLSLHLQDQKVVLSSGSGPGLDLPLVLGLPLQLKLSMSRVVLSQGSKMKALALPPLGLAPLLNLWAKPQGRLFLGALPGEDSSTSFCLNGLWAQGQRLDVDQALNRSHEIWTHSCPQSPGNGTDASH
# [3] = tested on: sex hormone binding globulin (SHBG) and albumin; conditions: blood
# [4] = tested on: isolated human corpus cavernosum
# Sequence of sex hormone binding globulin (SHBG) and albumin (Homo sapiens, UniProt P02768) (P02768 25-609): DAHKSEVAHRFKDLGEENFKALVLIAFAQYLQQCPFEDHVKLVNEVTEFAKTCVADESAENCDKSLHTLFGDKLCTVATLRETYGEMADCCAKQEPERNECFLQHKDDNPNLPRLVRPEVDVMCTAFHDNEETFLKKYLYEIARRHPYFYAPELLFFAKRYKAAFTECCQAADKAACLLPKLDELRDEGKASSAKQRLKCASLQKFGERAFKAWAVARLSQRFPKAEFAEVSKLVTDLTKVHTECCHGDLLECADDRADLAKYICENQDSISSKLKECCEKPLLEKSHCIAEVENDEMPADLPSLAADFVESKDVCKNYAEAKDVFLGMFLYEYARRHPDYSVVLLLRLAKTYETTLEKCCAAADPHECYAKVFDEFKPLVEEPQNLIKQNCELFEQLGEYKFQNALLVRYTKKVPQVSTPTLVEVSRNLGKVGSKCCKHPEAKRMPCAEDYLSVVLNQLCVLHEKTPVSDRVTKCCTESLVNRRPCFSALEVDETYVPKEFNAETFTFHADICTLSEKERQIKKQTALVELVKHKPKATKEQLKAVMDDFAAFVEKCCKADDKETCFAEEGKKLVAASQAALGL
Structure (SMILES),share of the binding bound weakly to albumin [1] [%],share of the binding to sex hormone binding globulin (SHBG) [2],testosterone in the blood bound to protein [3] [%],direct relaxant effect on isolated human corpus cavernosum [4]
"C[C@]12CC[C@H]3[C@@H](CCC4=CC(=O)CC[C@@]43C)[C@@H]1CC[C@@H]2O [Testosterone, testosterone]",60,approximately 40%,98,
"CCCc1nn(C)c2c(=O)[nH]c(-c3cc(S(=O)(=O)N4CCN(C)CC4)ccc3OCC)nc12 [VIAGRA®, sildenafil citrate USP]",,,,no direct relaxant effect
